Assay results taken from US7138361B2, “Herbicidal heterocycles” (E. I. du Pont de Nemours and Company, priority 2000, dated 2006).

What was measured:
Format in all cases: in vivo
[1] = test system: morning glory (Ipomoea spp.); assay: Test A postemergence, sprayed to runoff; parameters: scale not given here; settings: Morningglory, approx. eleven days
Experimental: (§1) Seeds of barnyardgrass (Echinochloa crus-galli), crabgrass (Digitaria spp.), giant foxtail (Setaria viridis), morning glory (Ipomoea spp.), redroot pigweed (Amaranthus retroflexus) and velvetleaf (Abutilon theophrasti) were planted into a sandy loam soil and treated preemergence by soil drench with test chemicals formulated in a non-phytotoxic solvent mixture which included a surfactant. At the same time, these crop and weed species were also treated postemergence sprayed to runoff with test chemicals formulated in the same manner. Plants ranged in height from two to eighteen cm and were in the one- to two-leaf stage for the postemergence treatment. Treated plants and untreated controls were maintained in a greenhouse for approximately eleven days, after which time all treated plants were compared to untreated controls and visually evaluated for injury. Plant response ratings, summarized in Table A, are based on a 0 to 10 scale where 0 is no effect and 10 is complete control. A dash (-) response means no test results.

[2] = test system: velvetleaf (Abutilon theophrasti); assay: Test A postemergence, sprayed to runoff; parameters: scale not given here; settings: approx. eleven days
Experimental: as §1

[3] = test system: barnyardgrass (Echinochloa crus-galli); assay: Test A postemergence, sprayed to runoff; settings: approx. eleven days
Experimental: as §1

[4] = test system: crabgrass (Digitaria spp.); assay: Test A postemergence, sprayed to runoff; settings: approx. eleven days
Experimental: as §1

[5] = test system: giant foxtail (Setaria viridis); assay: Test A postemergence, sprayed to runoff; settings: approx. eleven days
Experimental: as §1

[6] = test system: redroot pigweed (Amaranthus retroflexus); assay: Test A postemergence, sprayed to runoff; settings: approx. eleven days
Experimental: as §1

[7] = test system: barnyardgrass (Echinochloa crus-galli); assay: Test A preemergence, soil drench; settings: approx. eleven days
Experimental: as §1

[8] = test system: crabgrass (Digitaria spp.); assay: Test A preemergence, soil drench; settings: approx. eleven days
Experimental: as §1

[9] = test system: giant foxtail (Setaria viridis); assay: Test A preemergence, soil drench; settings: approx. eleven days
Experimental: as §1

[10] = test system: morning glory (Ipomoea spp.); assay: Test A preemergence, soil drench; settings: Morningglory, approx. eleven days
Experimental: as §1

[11] = test system: redroot pigweed (Amaranthus retroflexus); assay: Test A preemergence, soil drench; settings: approx. eleven days
Experimental: as §1

[12] = test system: velvetleaf (Abutilon theophrasti); assay: Test A preemergence, soil drench; settings: approx. eleven days
Experimental: as §1

SMILES | Plant response rating (visual injury vs untreated controls) ([1]; Rate 500 g/ha) | Plant response rating (visual injury vs untreated controls) ([1]; Rate 2000 g/ha) | Plant response rating (visual injury vs untreated controls) ([2]; Rate 500 g/ha) | Plant response rating (visual injury vs untreated controls) ([2]; Rate 2000 g/ha) | Plant response rating (visual injury vs untreated controls) ([3]; Rate 500 g/ha) | Plant response rating (visual injury vs untreated controls) ([3]; Rate 2000 g/ha) | Plant response rating (visual injury vs untreated controls) ([4]; Rate 500 g/ha) | Plant response rating (visual injury vs untreated controls) ([4]; Rate 2000 g/ha) | Plant response rating (visual injury vs untreated controls) ([5]; Rate 500 g/ha) | Plant response rating (visual injury vs untreated controls) ([5]; Rate 2000 g/ha) | Plant response rating (visual injury vs untreated controls) ([6]; Rate 500 g/ha) | Plant response rating (visual injury vs untreated controls) ([6]; Rate 2000 g/ha) | Plant response rating (visual injury vs untreated controls) ([7]; Rate 500 g/ha) | Plant response rating (visual injury vs untreated controls) ([7]; Rate 2000 g/ha) | Plant response rating (visual injury vs untreated controls) ([8]; Rate 500 g/ha) | Plant response rating (visual injury vs untreated controls) ([8]; Rate 2000 g/ha) | Plant response rating (visual injury vs untreated controls) ([9]; Rate 500 g/ha) | Plant response rating (visual injury vs untreated controls) ([9]; Rate 2000 g/ha) | Plant response rating (visual injury vs untreated controls) ([10]; Rate 500 g/ha) | Plant response rating (visual injury vs untreated controls) ([10]; Rate 2000 g/ha) | also measured
Cc1ccn(C2CCN(c3cccc(C(F)(F)F)c3)C2=O)n1 (stereo not drawn) [Compound 16] | 20 | 20 | 0 | 20 | 0 | 10 | 10 | 20 | 0 | 30 | 0 | 0 | 10 | 70 | 100 | 100 | 80 | 90 | 0 | 20 | Plant response rating (visual injury vs untreated controls) ([11]; Rate 500 g/ha): 80; Plant response rating (visual injury vs untreated controls) ([11]; Rate 2000 g/ha): 100; Plant response rating (visual injury vs untreated controls) ([12]; Rate 500 g/ha): 10; Plant response rating (visual injury vs untreated controls) ([12]; Rate 2000 g/ha): 100
CC(C)(C)c1nn(C2CCN(c3cccc(C(F)(F)F)c3)C2=O)cc1Cl (stereo not drawn) [Compound 14] | 0 | 0 | 0 | 0 | 0 | 0 | 0 | 0 | 0 | 0 | 0 | 20 | 0 | 0 | 0 | 0 | 0 | 0 | 0 | 0 | Plant response rating (visual injury vs untreated controls) ([11]; Rate 500 g/ha): 40; Plant response rating (visual injury vs untreated controls) ([11]; Rate 2000 g/ha): 70; Plant response rating (visual injury vs untreated controls) ([12]; Rate 500 g/ha): 0; Plant response rating (visual injury vs untreated controls) ([12]; Rate 2000 g/ha): 0
O=C1C(n2ccc(C3CC3)n2)OCN1c1cccc(C(F)(F)F)c1 (stereo not drawn) [Compound 28] | 10 | 20 | 0 | 50 | 60 | 60 | 20 | 40 | 80 | 90 | 20 | 80 | 100 | 100 | 90 | 100 | 100 | 100 | 0 | 0 | Plant response rating (visual injury vs untreated controls) ([11]; Rate 500 g/ha): 100; Plant response rating (visual injury vs untreated controls) ([11]; Rate 2000 g/ha): 100; Plant response rating (visual injury vs untreated controls) ([12]; Rate 500 g/ha): 10; Plant response rating (visual injury vs untreated controls) ([12]; Rate 2000 g/ha): 10
CC(C)(C)c1ccn(C2SCN(c3cccc(C(F)(F)F)c3)C2=O)n1 (stereo not drawn) [Compound 1] | 90 | 90 | 10 | 30 | 60 | 90 | 10 | 10 | 30 | 30 | 20 | 90 | 90 | 100 | 90 | 100 | 90 | 100 | 10 | 80 | Plant response rating (visual injury vs untreated controls) ([11]; Rate 500 g/ha): 100; Plant response rating (visual injury vs untreated controls) ([11]; Rate 2000 g/ha): 100; Plant response rating (visual injury vs untreated controls) ([12]; Rate 500 g/ha): 10; Plant response rating (visual injury vs untreated controls) ([12]; Rate 2000 g/ha): 70
CC1(C)CCc2cn(C3CCN(c4cccc(C(F)(F)F)c4)C3=O)nc21 (stereo not drawn) [Compound 10] | 10 | 20 | 0 | 50 | 20 | 10 | 10 | 10 | 10 | 10 | 20 | 100 | 100 | 100 | 90 | 100 | 90 | 100 | 0 | 20 | Plant response rating (visual injury vs untreated controls) ([11]; Rate 500 g/ha): 100; Plant response rating (visual injury vs untreated controls) ([11]; Rate 2000 g/ha): 100; Plant response rating (visual injury vs untreated controls) ([12]; Rate 500 g/ha): 20; Plant response rating (visual injury vs untreated controls) ([12]; Rate 2000 g/ha): 10
